Laboratory results: patent US12679824B2 (Hoffmann-La Roche Inc., priority 2020, dated 2026)

tested on: Acinetobacter baumannii ATCC17961; experiment: 90% Growth Inhibitory Concentration (IC90) determination, antimicrobial susceptibility testing; format: cell-based; conditions: Acinetobacter baumannii, ATCC17961, 16 h, Acinetobacter baumannii ATCC17961; Iso-Sensitest broth; growth by optical density at 600 nm over 16h; concentration inhibiting 90% of the growth; read-out: ATCC 17961 IC90
Summary of the method: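 Broth microdilution in Iso-Sensitest medium, compounds twofold diluted (e.g. 50–0.097 μM final), inoculum ~5×10^(5) CFU/ml, 35±2° C. OD600 was read every 20 min over 16 h. IC90 was derived from growth inhibition during logarithmic growth.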

Structure (SMILES)	IC90 [nM]
C[C@H]1CN(C(=O)c2ccc(NC(=O)c3ncc(-c4cn(-c5ccc(N)cn5)nc4C(F)(F)F)n3C)cc2Cl)CCN1 [Example Z61, 5-[1-(5-amino-2-pyridyl)-3-(trifluoromethyl)pyrazol-4-yl]-N-[3-chloro-4-[(3S)-3-methylpiperazine-1-carbonyl]phenyl]-1-methyl-imidazole-2-carboxamide]	700
Cn1c(-c2cn(-c3ccc(N)cn3)nc2C(F)(F)F)cnc1C(=O)Nc1ccc(C(=O)N2CCNCC2)c(Cl)c1 [Example Z32, 5-[1-(5-amino-2-pyridyl)-3-(trifluoromethyl)pyrazol-4-yl]-N-[3-chloro-4-(piperazine-1-carbonyl)phenyl]-1-methyl-imidazole-2-carboxamide]	390
Cn1c(-c2cn(-c3ncccc3C(F)(F)F)nc2C(F)(F)F)cnc1C(=O)Nc1ccc(C(=O)N2CCN(C(=O)C3CCNCC3)CC2)c(Cl)c1 [Example A10, N-[3-chloro-4-[4-(piperidine-4-carbonyl)piperazine-1-carbonyl]phenyl]-1-methyl-5-[3-(trifluoromethyl)-1-[3-(trifluoromethyl)-2-pyridyl]pyrazol-4-yl]imidazole-2-carboxamide]	830
CC(C)[C@H]1CN(C(=O)c2ccc(NC(=O)c3ncc(-c4cn(-c5ccc(N)cn5)nc4C(F)(F)F)n3C)cc2Cl)CCN1 [Example Z58, 5-[1-(5-amino-2-pyridyl)-3-(trifluoromethyl)pyrazol-4-yl]-N-[3-chloro-4-[(3S)-3-isopropylpiperazine-1-carbonyl]phenyl]-1-methyl-imidazole-2-carboxamide]	560
Cn1c(-c2cn(-c3ccc(N)cn3)nc2C(F)(F)F)cnc1C(=O)Nc1ccc(C(=O)NC2(CO)CCNC2)c(Cl)c1 (centres unmarked) [Example Z5, 5-[1-(5-amino-2-pyridyl)-3-(trifluoromethyl)pyrazol-4-yl]-N-[3-chloro-4-[(3-methylolpyrrolidin-3-yl)carbamoyl]phenyl]-1-methyl-imidazole-2-carboxamide]	1800
Cn1c(-c2cn(-c3ccc(N)cn3)nc2C(F)(F)F)cnc1C(=O)Nc1ccc(C(=O)NCc2cc[nH]n2)c(Cl)c1 [Example I2, 5-[1-(5-amino-2-pyridyl)-3-(trifluoromethyl)pyrazol-4-yl]-N-[3-chloro-4-(1H-pyrazol-3-ylmethylcarbamoyl)phenyl]-1-methyl-imidazole-2-carboxamide]	400
CNC1CCN(C(=O)c2ccc(NC(=O)c3ncc(-c4cn(-c5ccc(N)cn5)nc4C(F)(F)F)n3C)cc2Cl)CC1 [Example Z4, 5-[1-(5-amino-2-pyridyl)-3-(trifluoromethyl)pyrazol-4-yl]-N-[3-chloro-4-[4-(methylamino)piperidine-1-carbonyl]phenyl]-1-methyl-imidazole-2-carboxamide]	220
Cn1cnc(-n2cc(-c3cnc(C(=O)Nc4ccc(C(=O)N5CCN(C(=O)C6CCNCC6)CC5)c(Cl)c4)n3C)c(C(F)(F)F)n2)c1 [Example E4, N-[3-chloro-4-[4-(piperidine-4-carbonyl)piperazine-1-carbonyl]phenyl]-1-methyl-5-[1-(1-methylimidazol-4-yl)-3-(trifluoromethyl)pyrazol-4-yl]imidazole-2-carboxamide]	680
CN(C(=O)[C@@H]1C[C@@H](O)CN1)C1CCN(C(=O)c2ccc(NC(=O)c3ncc(-c4cn(-c5ccc(N)cn5)nc4C(F)(F)F)n3C)cc2Cl)CC1 [Example Z46, 5-[1-(5-amino-2-pyridyl)-3-(trifluoromethyl)pyrazol-4-yl]-N-[3-chloro-4-[4-[[(2S,4R)-4-hydroxyprolyl]-methyl-amino]piperidine-1-carbonyl]phenyl]-1-methyl-imidazole-2-carboxamide]	390
Cn1c(-c2cn(-c3ccc(N)cn3)nc2C(F)(F)F)cnc1C(=O)Nc1ccc(C(=O)N[C@H]2CC[C@H](N)C2)c(Cl)c1 [Example Z16]	860
COCCn1ncc(-n2cc(-c3cnc(C(=O)Nc4ccc(C(=O)N5CCN(C(=O)C6CCNCC6)CC5)c(Cl)c4)n3C)c(C(F)(F)F)n2)c1C [Example E2, N-[3-chloro-4-[4-(piperidine-4-carbonyl)piperazine-1-carbonyl]phenyl]-5-[1-[1-(2-methoxyethyl)-5-methyl-pyrazol-4-yl]-3-(trifluoromethyl)pyrazol-4-yl]-1-methyl-imidazole-2-carboxamide]	470
Cn1c(-c2cn(-c3ccc(Cl)nc3)nc2C(F)(F)F)cnc1C(=O)Nc1ccc(C(=O)N2CCN(C(=O)[C@@H]3C[C@@H](O)CN3)CC2)c(Cl)c1 [Example Z30, N-[3-chloro-4-[4-[(2S,4R)-4-hydroxyprolyl]piperazine-1-carbonyl]phenyl]-5-[1-(6-chloro-3-pyridyl)-3-(trifluoromethyl)pyrazol-4-yl]-1-methyl-imidazole-2-carboxamide]	780
COc1nccc(-n2cc(-c3cnc(C(=O)Nc4ccc(C(=O)N5CCN(C(=O)C6CCNCC6)CC5)c(Cl)c4)n3C)c(C(F)(F)F)n2)n1 [Example C6, N-[3-chloro-4-[4-(piperidine-4-carbonyl)piperazine-1-carbonyl]phenyl]-5-[1-(2-methoxypyrimidin-4-yl)-3-(trifluoromethyl)pyrazol-4-yl]-1-methyl-imidazole-2-carboxamide]	890
Cn1c(-c2cn(-c3ncc(NCCN)cn3)nc2C(F)(F)F)cnc1C(=O)Nc1ccc(C(=O)N2CCN(C(=O)C3CCNCC3)CC2)c(Cl)c1 [Example B2, 5-[1-[5-(2-aminoethylamino)pyrimidin-2-yl]-3-(trifluoromethyl)pyrazol-4-yl]-N-[3-chloro-4-[4-(piperidine-4-carbonyl)piperazine-1-carbonyl]phenyl]-1-methyl-imidazole-2-carboxamide]	170
COc1ccc(-n2cc(-c3cnc(C(=O)Nc4ccc(C(=O)N5CCN(C(=O)[C@@H]6CCNC[C@H]6O)CC5)c(Cl)c4)n3C)c(C(F)(F)F)n2)nc1 [Example F4, N-[3-chloro-4-[4-[(3S,4R)-3-hydroxypiperidine-4-carbonyl]piperazine-1-carbonyl]phenyl]-5-[1-(5-methoxy-2-pyridyl)-3-(trifluoromethyl)pyrazol-4-yl]-1-methyl-imidazole-2-carboxamide]	310
CNc1ccc(-n2cc(-c3cnc(C(=O)Nc4ccc(C(=O)N5CCN(C(=O)[C@@H]6C[C@@H](O)CN6)CC5)c(Cl)c4)n3C)c(C(F)(F)F)n2)nc1 [Example D7, N-[3-chloro-4-[4-[(2S,4R)-4-hydroxypyrrolidine-2-carbonyl]piperazine-1-carbonyl]phenyl]-1-methyl-5-[1-[5-(methylamino)-2-pyridyl]-3-(trifluoromethyl)pyrazol-4-yl]imidazole-2-carboxamide]	280
Cn1c(-c2cn(-c3ccc(N)nc3F)nc2C(F)(F)F)cnc1C(=O)Nc1ccc(C(=O)N2CCN(C(=O)C3CCNCC3)CC2)c(Cl)c1 [Example Z84, 5-[1-(6-amino-2-fluoro-3-pyridyl)-3-(trifluoromethyl)pyrazol-4-yl]-N-[3-chloro-4-[4-(piperidine-4-carbonyl)piperazine-1-carbonyl]phenyl]-1-methyl-imidazole-2-carboxamide]	230
Cn1c(-c2cn(-c3ccc([N+](=O)[O-])cn3)nc2C(F)(F)F)cnc1C(=O)Nc1ccc(C(=O)N2CCN(C(=O)[C@H]3NCC[C@@H]3O)CC2)c(Cl)c1 [Example C17, N-[3-chloro-4-[4-[(2S,3S)-3-hydroxypyrrolidine-2-carbonyl]piperazine-1-carbonyl]phenyl]-1-methyl-5-[1-(5-nitro-2-pyridyl)-3-(trifluoromethyl)pyrazol-4-yl]imidazole-2-carboxamide]	790
Cc1cc(N)cnc1-n1cc(-c2cnc(C(=O)Nc3ccc(C(=O)N4CCN(C(=O)C5CCNCC5)CC4)c(Cl)c3)n2C)c(C(F)(F)F)n1 [Example Z81, 5-[1-(5-amino-3-methyl-2-pyridyl)-3-(trifluoromethyl)pyrazol-4-yl]-N-[3-chloro-4-[4-(piperidine-4-carbonyl)piperazine-1-carbonyl]phenyl]-1-methyl-imidazole-2-carboxamide]	750
C[C@@H]1CNC[C@H](C)N1C(=O)c1ccc(NC(=O)c2ncc(-c3cn(-c4ccc(N)cn4)nc3C(F)(F)F)n2C)cc1Cl [Example Z54, 5-[1-(5-amino-2-pyridyl)-3-(trifluoromethyl)pyrazol-4-yl]-N-[3-chloro-4-[(2S,6R)-2,6-dimethylpiperazine-1-carbonyl]phenyl]-1-methyl-imidazole-2-carboxamide]	350

same assay, conditions: Acinetobacter baumannii, ATCC17961, 16 h, read-out: ATCC 17961 IC90

Structure (SMILES)	IC90 [nM]
CCNc1ccc(-n2cc(-c3cnc(C(=O)Nc4ccc(C(=O)N5CCN(C(=O)C6CCNCC6)CC5)c(Cl)c4)n3C)c(C(F)(F)F)n2)nc1 [Example K1, N-[3-chloro-4-[4-(piperidine-4-carbonyl)piperazine-1-carbonyl]phenyl]-5-[1-[5-(ethylamino)-2-pyridyl]-3-(trifluoromethyl)pyrazol-4-yl]-1-methyl-imidazole-2-carboxamide]	500
Cn1c(-c2cn(-c3ccc(N)c(F)n3)nc2C(F)(F)F)cnc1C(=O)Nc1ccc(C(=O)N2CCN(C(=O)C3CCNCC3)CC2)c(Cl)c1 [Example Z72, 5-[1-(5-amino-6-fluoro-2-pyridyl)-3-(trifluoromethyl)pyrazol-4-yl]-N-[3-chloro-4-[4-(piperidine-4-carbonyl)piperazine-1-carbonyl]phenyl]-1-methyl-imidazole-2-carboxamide]	250
Cn1c(-c2cn(-c3ccc(N)cn3)nc2C(F)(F)F)cnc1C(=O)Nc1ccc(C(=O)N2CC[C@H](CN)C2)c(Cl)c1 [Example Z1, N-[4-[(3R)-3-(aminomethyl)pyrrolidine-1-carbonyl]-3-chloro-phenyl]-5-[1-(5-amino-2-pyridyl)-3-(trifluoromethyl)pyrazol-4-yl]-1-methyl-imidazole-2-carboxamide]	480
